Consider 14 compounds from ChEMBL document CHEMBL4387726, “Design and synthesis of novel tellurodibenzoic acid compounds as kidney-type glutaminase (KGA) inhibitors” (Bioorg Med Chem Lett, 2019).

A short description of series [1]: Inhibition of Escherichia coli GDH using glutamate as substrate pre treated with 1 hr followed by substrate addition and measured after 1 hr.
The subject of a further series is HCT-116. The experiment in a line: Antiproliferative activity against human HCT116 cells assessed as reduction in cell viability after 5 days by EZMTT assay. The series is classed as functional, cell-based. Particulars: HCT-116, 120 h.
Series [2] in a line: Inhibition of human KGA assessed as reduction in glutamate formation using glutamine as substrate pretreated with 0.5 hr followed by substrate addition and measured after 4 hrs by KGA/GDH coupled assay.
Series [3] in a line: Inhibition of Escherichia coli TrxR pre treated with 0.5 hr followed by DTNB addition and measured after 1 hr.
Series [4] can be described thus: Stability of the compound in oxidative (H2O2) solution at 37 degC for 24 hrs by HPLC analysis. It is filed as physicochemical.
Series [5] is described as follows: Stability of the compound in acidic (HCOOH) solution at 37 degC for 24 hrs by HPLC analysis. The series is classed as physicochemical.
Series [6] can be described thus: Stability of the compound in nucleophilic (DTT) solution at 37 degC for 24 hrs by HPLC analysis. It is filed as physicochemical.
Series [7] can be described thus: Stability of the compound in nucleophilic (lysine) solution at 37 degC for 24 hrs by HPLC analysis. It is filed as physicochemical.
The nature of series [8]: Stability of the compound in nucleophilic (beta-ME) solution at 37 degC for 24 hrs by HPLC analysis. The series is classed as physicochemical.
Series [9] is described as follows: Stability of the compound in basic (NH3.H2O) solution at 37 degC for 24 hrs by HPLC analysis. It is filed as physicochemical.

For orientation: IC50 means the concentration at which inhibition is half-maximal. The EC50 is the concentration at which the effect is half-maximal.

As to `O=C(O)c1ccccc1[Te]c1ccccc1C(=O)O`, the results for the IC50 in series [1], in series [2] and in series [3] were over 66.7 µM, 7 µM and over 66.7 µM, respectively. Moreover, in the series on HCT-116, the EC50 is 17.8 µM.
For the compound `CNC(=O)c1cc(Br)ccc1[Te]c1ccc(Br)cc1C(=O)NC`, the IC50 in series [1], in [2] and in series [3] was over 66.7 µM throughout. Besides, the EC50 in the series with HCT-116 was over 50 µM.
For the compound `COc1cccc(C(=O)O)c1[Te]c1c(OC)cccc1C(=O)O`, the IC50 in [1], in series [2] and in series [3] was over 66.7 µM throughout. The EC50 in the series with HCT-116 is over 50 µM.
Regarding `COc1ccc(C(=O)O)c([Te]c2cc(OC)ccc2C(=O)O)c1`, the IC50 in series [1] is over 66.7 µM; in series [2], 11.3 µM; in series [3], over 66.7 µM. The 50% effective concentration (EC50) in the series on HCT-116 is 7.5 µM.
Regarding `O=C(O)c1cc(Br)ccc1[Te]c1ccc(Br)cc1C(=O)O`, the Stability entry in series [4] is “Stable”; in series [5], “Stable”; in [6], “Unstable”; in series [7], “Unstable”; in series [8], “Unstable”; in series [9], “Stable”. In addition, the values for the IC50 in series [1], in series [2] and in series [3] were over 66.7 µM, 2.4 µM and over 66.7 µM, respectively. For the same compound, the EC50 in the series with HCT-116 amounted to 5 µM.
Consider `COC(=O)c1cc(Br)ccc1[Te]c1ccc(Br)cc1C(=O)OC`, for which the IC50 in series [1], in series [2] and in series [3] was over 66.7 µM throughout. Also, the concentration giving a half-maximal response (EC50) in the series on HCT-116 is over 50 µM.
As for `O=C(Nc1ccccc1)c1cc(Br)ccc1[Te]c1ccc(Br)cc1C(=O)Nc1ccccc1`, the IC50 in series [1], in series [2] and in series [3] was over 66.7 µM throughout. In addition, the half-maximal effective concentration (EC50) in the series with HCT-116 is over 50 µM.
With `CCNC(=O)c1cc(Br)ccc1[Te]c1ccc(Br)cc1C(=O)NCC`, the IC50 in [1] is over 66.7 µM; in [2], 62.8 µM; in series [3] it was over 66.7 µM. The EC50 in the series with HCT-116 is over 50 µM.
Regarding `O=C(O)c1cc(O)ccc1[Te]c1ccc(O)cc1C(=O)O`, the figures for the IC50 in series [1], in [2] and in series [3] were over 66.7 µM, 6.3 µM and over 66.7 µM, respectively. In addition, the 50% effective concentration (EC50) in the series with HCT-116 stood at 18 µM.
On to `Cc1ccc([Te]c2ccc(C)cc2C(=O)O)c(C(=O)O)c1`, for which the IC50 in [1] is over 66.7 µM; in [2], 10.2 µM; in series [3] it was over 66.7 µM. Also, the EC50 in the series with HCT-116 amounted to 16.9 µM.
With `O=C(OCc1ccccc1)c1cc(Br)ccc1[Te]c1ccc(Br)cc1C(=O)OCc1ccccc1`, the IC50 in series [1], in series [2] and in series [3] was over 66.7 µM in each case. Besides, the EC50 in the series on HCT-116 is over 50 µM.
For the compound `CCOC(=O)c1cc(Br)ccc1[Te]c1ccc(Br)cc1C(=O)OCC`, the IC50 in series [1], in series [2] and in series [3] was over 66.7 µM in each case. The EC50 with HCT-116 is over 50 µM.
Regarding `COc1ccc([Te]c2ccc(OC)cc2C(=O)O)c(C(=O)O)c1`, the IC50 in series [1] was over 66.7 µM; in series [2], 7.8 µM; in [3], over 66.7 µM. Moreover, the EC50 in the series on HCT-116 turned out to be 10.2 µM.
Turning to `O=C(O)c1cc(I)ccc1[Te]c1ccc(I)cc1C(=O)O`, the IC50 in series [1] is over 66.7 µM; in series [2] it was 7.4 µM; in [3], over 66.7 µM. The EC50 in the series on HCT-116 is 25.6 µM.
